From patent US12419308B2, “Phenylpyrazole insecticide compounds and compositions” (priority 2023, dated 2025)

How the values were obtained:
[1] = tested on: adult worker honeybees, Apis mellifera L; test: Acute oral toxicity test in honeybees (OECD 213); format: in vivo
Experimental: Untreated 50% w/v sucrose solution with 0.2% of propanol-water solution (ratio 80%-20%) is used as a negative control.
The test item is diluted with aqueous sucrose solution 50% (w/v) to prepare the oral solutions. The bees used for the oral test are anesthetized with carbon dioxide for the time necessary to immobilize them and placed inside the test cages; 2 hours before the treatment they are starved. A volume of 200 μL (20 μL/bee) of treated diet is administered to each cage with a dispenser (e.g., a syringe without tip), weighed before and after filling.
The overall exposure period is 6 hours, during which consumption is monitored: the feeder is changed at the end of the six hours or once the treated diet has been consumed (usually within 3-4 hours). In both cases, the feeder is weighed and a new feeder with untreated 50% (w/v) sucrose solution is provided ad libitum, and the mean effective dose is calculated based on the actual consumption.

[2] = tested on: Dermanyssus gallinae; test: Antiparasitic efficacy on live chickens with natural mite infestation; format: in vivo; details: by day 5 of treatment; 0.25% (w/v) spray, 7.5 mg/kg once daily for 5 days
Experimental: Two animals are treated with the compound of Example 1, and two animals are treated with Fipronil, while one animal is left untreated as a negative control. The infestation by D. gallinae is monitored by checking the density of mites in particular areas of the animal's bodies (feet, legs, and wings), comparing pre-treatment levels of infestation to post-treatment levels.
When all pests have been eliminated, a 100% pest control capability was achieved. In the case of some chemical products, when the pest was not fully eliminated, the disinfestation capacity was measured by averaging the number of infesting organisms located in three distinct areas of the treated animals, at the beginning of the treatment, and at the end of the treatment.

[3] = Plasma concentration analysis in topically treated chickens; details: Compound of Example 1 treatment, topical spray 7.5 mg/kg once daily
Experimental: To explore the therapeutic potential of the compounds of the present disclosure, live chickens with mite infestation (Dermanyssus gallinae) are treated topically with solutions of test compound, with Fipronil as a positive control. Test solutions are prepared by dissolving the test compound in a mixture of 2-butoxyethanol, ethanol, and water (7:2:1) to reach a final concentration of 0.25% (w/v).
The test solution is administered using a mechanical spray pump delivering 0.5 mL of solution per actuation. The test solution is sprayed over the entire surface of the animal's body from a distance of 10-20 centimeters, resulting in direct contact of the solution with the animal's skin. The dosage applied to each animal is 3 mL/kg, equivalent to 7.5 mg/kg (kg live weight). The dosage is achieved using six actuations of the spray per kg of body weight per day. The treatment is administered once daily for 5 days at 24 hours intervals. One animal is left untreated as a negative control.
Blood samples are taken from each animal before the first treatment (T=0), and at 24-hour intervals thereafter. Each egg produced after a treatment is collected for later analysis.
Plasma samples are derived from each blood sample using standard procedures immediately after blood collection. Plasma is stored frozen at −80° C. until the time of analysis. Samples are then thawed at room temperature and extraction is performed by solid phase extraction (SPE) (Strata-X 33. Polymeric Reversed Phase, 60 mg/3 mL, Phenomenex) on an aliquot of sample (100 μl) pretreated for protein precipitation with 300 μl of acetonitrile. After protein precipitation, the samples are well vortexed and then centrifuged (12000 rpm, 10 min, RT). Supernatant is collected and transferred to clean Falcon tubes and diluted with 3 ml of water. Strata-X columns are conditioned with 2 ml of methanol and with 2 ml of water. Samples are loaded after conditioning, and the columns are washed with 2 ml of water, and analytes are eluted with 2 nil of methanol, dried under nitrogen and then resuspended in 100 μl of acetonitrile for mass spectral analysis.
A Thermo Q-exactive mass spectrometer (Thermo Fisher Scientific, Waltham, MA) is used. The LC system, governed by Chromeleon X-press software, consists of a binary pump, a thermostated autosampler, and a column compartment, all Dionex Ultimate 3000 series modules (Thermo Fisher Scientific, Waltham, MA). A volume of 2 μL is injected for each sample. Chromatographic separation of analytes is conducted in reverse-phase chromatography. A Luna Omega 1.6 μm Polar (CIS, 2.1 mm×100 mm) is used, and the mobile phases are (A) water and (B) acetonitrile, both containing 0.1% v/v formic acid. […]
Plasma samples from Day 3 and Day 5 are analyzed.

## N#Cc1nn(-c2c(Cl)cc(C(F)(F)F)cc2Cl)c2nc(O)cc(C(F)(F)F)c12 [Example 1, 1-(2,6-dichloro-4-(trifluoromethyl)phenyl)-6-hydroxy-4-(trifluoromethyl)-1H-pyrazolo[3,4-b]pyridine-3-carbonitrile]
[1]; group T1, dose 0.002 μg/bee
  % CM (4 hours): 0.0%
  % CM (24 hours): 0.0%
  % CM (48 hours): 0.0%
[1]; group T2, dose 0.004 μg/bee
  % CM (4 hours): 0.0%
  % CM (24 hours): 19.2%
  % CM (48 hours): 17.4%
[1]; group T3, dose 0.006 μg/bee
  % CM (4 hours): 0.0%
  % CM (24 hours): 15.4%
  % CM (48 hours): 13.0%
[2]
  Chickens free of mites: 100%
[3]; Chicken 3, 3 days
  Plasma concentration of analyte: 0.01 ppm
[3]; Chicken 3, 5 days
  Plasma concentration of analyte: 0.03 ppm
[3]; Chicken 4, 3 days
  Plasma concentration of analyte: 0.7 ppm
[3]; Chicken 4, 5 days
  Plasma concentration of analyte: 1.2 ppm
